Test results taken from patent publication US20240218330A1, “COMPOSITIONS FOR IMPROVING THE TRANSDUCTION OF CELLS BY VIRAL VECTORS” (Ospedale San Raffaele S.r.l., priority 2021, published 2024).

Test system: unstimulated hHSPC
Assay: lentiviral vector (LV) transduction of unstimulated HSPC, % GFP+ cells by flow cytometry
Assay type: cell-based, human
Conditions: for LV transduction of unstimulated hHSPC vs DMSO control: FIG. 6D-E; for effect on transduction efficiency of quiescent HSPC: in presence of CsH, 4 h pre-exposure to single nucleoside or purine/pyrimidine mix, vs CsH only control, FIG. 3A-D
Experimental: Cyclosporine H (Sigma-Aldrich) was resuspended and stored following the manufacturer's instructions. Where indicated CsH was added to the transduction medium at 8 μM concentration and washed out with the vector 16-20 hours later. dNTPs (NEB N1201AA) were added to the transduction medium where indicated at 10 uM concentration and washed out with the vector 16-20 hours later. dA (D8668), dC (D0776), dG (D0901) and dT (T1895) were all purchased from Sigma-Aldrich and resuspended and stored following the manufacturer's instructions. dNs mix, single dNs or combinations of dNs (500-1000 μM each) were added to the culture media 4 h-2 h before transduction and washed out with the vector 16-20 hours later. For dosage experiment 25 μM to 1000 μM concentrations of each dN was tested.
All cells were transduced at the indicated multiplicity of infection (MOI) as calculated by titration of vector stocks on 293T cells and expressed as transducing units (TU)/293T cell. For transduction, CB-derived HSPC were cultured in serum-free StemSpan medium supplemented with penicillin (100 IU/ml), streptomycin ([…]), 100 ng/ml recombinant human stem cell factor (rhSCF), 20 ng/ml recombinant human thrombopoietin (rhTPO), 100 ng/ml recombinant human Flt3 ligand (rhFlt3), and 20 ng/ml recombinant human IL6 (rhIL6) (all from Peprotech) 16 to 24 hours prior to transduction. Bone marrow and G-CSF mobilized peripheral blood CD34+ cells were cultured in CellGro medium (Cell Genix) supplemented with penicillin (100 IU/ml), streptomycin ([…]) and a cocktail of cytokines: 60 ng/ml IL-3, 100 ng/ml TPO, 300 ng/ml SCF, and 300 ng/ml FLT-3L (all from Cell Peprotech). HSPC were then transduced at a concentration of 1×10^6 cells per milliliter with the vector for 16 hours at the indicated multiplicity of infection (MOI), expressed as transducing units (TU)/293T cell, in the same medium. After transduction cells were washed and maintained in serum-free medium supplemented with cytokines as above until the reading of the percentage of positive cells by FACS, after which they were maintained in IMDM supplemented with 10% FBS, 25 ng/ml rhSCF, 5 ng/ml rhIL6-3, 25 ng/ml rhFlt3 and 5 ng/ml rhTPO. Unstimulated HSPC were transduced freshly isolated in StemSpan or CellGro medium supplemented with penicillin (100 IU/ml), streptomycin ([…]) for 16-24 hours and then maintained in presence of human cytokines and […] of the reverse-transcriptase inhibitor 3TC (from SIGMA) to avoid subsequent transduction due to cytokines stimulation. Unstimulated murine Lin-HSPC were transduced freshly isolated in serum-free StemSpan medium (StemCell Technologies) containing penicillin, streptomycin and glutamine at a concentration of 1×10^6 cells/ml for 16-20 hours and then maintained in presence of a combination of murine cytokines (20 ng/ml IL-3, 100 ng/ml SCF, 100 ng/ml Flt-3L, 50 ng/ml TPO all from Peprotech). MDM were transduced 7-10 days after differentiation. Activated T lymphocytes were transduced at a concentration of 10^6 cells/ml, after 3 days of stimulation with Dynabeads human T-activator CD3/CD28. Total CD14^− PBMC were transduced fresh at a concentration of 10^6 cells/ml for measurement of transduction.
GFP expression in transduced cells was measured 3-5 days post-transduction. Adherent MDM were detached by Tripsin-EDTA, washed and resuspended in PBS containing 2% fetal bovine serum (FBS). Cells grown in suspension were washed and resuspended in PBS containing 2% FBS. To measure HSPC subpopulation composition cells were harvested and incubated with anti-human receptor blocking antibodies for 15 min at 4° C. and then stained for 20 min at 4° C. with anti-human CD34 (RRID:AB_10827793), CD133 (RRID:AB_244346), CD90 (RRID:AB_559869) antibodies. […]

[1] = 7.5 μM Orotic Acid or 1 mM UMP alone, similarly to dNs alone
[2] = 7.5 μM Orotic Acid or 1 mM UMP combined with 8 μM CsH

| SMILES | LV transduction of unstimulated hHSPC vs DMSO control [1] | LV transduction of unstimulated hHSPC vs DMSO control [2] | effect on transduction efficiency of quiescent HSPC |
| --- | --- | --- | --- |
| O=C(O)c1cc(=O)[nH]c(=O)[nH]1 [OA, orotic acid] | increase in LV transduction | further significantly increased | – |
| O=c1ccn([C@@H]2O[C@H](COP(=O)(O)O)[C@@H](O)[C@H]2O)c(=O)[nH]1 [UMP, uridine 5′-monophosphate] | increase in LV transduction | further significantly increased | – |
| Nc1ncnc2c1ncn2[C@H]1C[C@H](O)[C@@H](CO)O1 [dA, Deoxyadenosine] | – | – | did not observe any effect |
| Nc1ccn([C@H]2C[C@H](O)[C@@H](CO)O2)c(=O)n1 [dC, Deoxycytidine] | – | – | gene marking levels comparable to the combination of all dNs |
| Nc1nc2c(ncn2[C@H]2C[C@H](O)[C@@H](CO)O2)c(=O)[nH]1 [dG, Deoxyguanosine] | – | – | did not observe any effect |
